Assay results as given in article PMC12452389, “Arginine-Derived Cationic Surfactants Containing Phenylalanine and Tryptophan: Evaluation of Antifungal Activity, Biofilm Eradication, Cytotoxicity, and Ecotoxicity” (Journal of Xenobiotics, 2025).
In brackets after ≈: the same amount, converted by molar mass. Several values for one entry are separate records, joined by “and”; a condition that tells them apart may be missing. Identical values can stand only once. Counter-ions that a name gives are not always drawn. Like-named read-outs stand apart in the source and are kept apart here. Peptide text beside a SMILES is read from it. * marks the point of attachment. Lauroyl = CCCCCCCCCCCC(=O)*

Columns and labels:
[1] = test system: Vibrio fischeri; assay: Luminescence reduction test; format: cell-based; settings: Aliivibrio fischeri, 0.25 h; Vibrio fischeri bioluminescence, 15 min of exposure; 95% confidence intervals in parentheses
Method: Ecotoxicological assessment of cationic surfactants was conducted using the Vibrio fischeri luminescent bioassay. This method relies on the measurement of decreased bioluminescent output from marine bacteria following contact with potentially toxic substances. Regression analysis was used to determine the concentration of the compound that caused a 50% reduction (EC50) in the amount of light emitted by the bacteria. The stated toxicity statistics given are based on the bacteria being exposed to the ionic liquid solution for 15 min at 15 °C.

[2] = test system: erythrocytes; assay: Hemolytic activity assay; format: cell-based; settings: rabbit erythrocytes
Method: Fresh rabbit blood was obtained from the Animal Facility of the CID-CSIC (Research and Development Center, Spanish National Research Council, Barcelona, Spain). Sample collection was conducted in strict compliance with the bioethical guidelines established under Spanish legislation. Erythrocytes were isolated by centrifugation (3000 rpm/10 min). The supernatant was discarded, and the erythrocytes were washed three times with PBS (phosphate-buffered saline, pH 7.4) and then resuspended in PBS at a concentration of 8 × 10^9 cells/mL. Subsequently, varying volumes of a concentrated surfactant solution were added to Eppendorf tubes containing 25 μL of erythrocyte suspension. PBS was then added to bring the total volume to 1 mL. The samples were gently shaken for 10 min at room temperature and centrifuged at 10,000 rpm for 5 min. Hemolysis was evaluated by measuring the absorbance of the supernatant at 540 nm and comparing it to that of a 100% hemolysis control (erythrocytes treated with distilled water). The HC50, defined as the surfactant concentration that induces 50% hemolysis, was determined from the concentration–response curves: % hemolysis= Abstest compound/AbsBasal haemolytic activity ×100

[3] = Surface tension, pendant drop tensiometer (cmc, γc); format: physicochemical; settings: for cmc: from surface tension
Method: Surface tension was measured using a custom-built pendant drop tensiometer, as described in detail in reference. Briefly, a droplet of surfactant solution is formed at the tip of a straight-cut Teflon tube. The image of the droplet is captured using a webcam, and its shape is analyzed by fitting the droplet profile to the Laplace–Young equation [14], To minimize evaporation, all measurements were conducted in a saturated humid atmosphere. The use of this technique is especially well-suited for cationic surfactants because it helps to mitigate complications related to surface adsorption. Critical micelle concentration values (cmc) were determined by finding the intersection of the linear fits before and after the break in the curves.

[4] = test system: Candida albicans ATCC 90028; assay: MIC broth microdilution; format: cell-based; settings: C. albicans; for MIC: Candida albicans, ATCC90028, read-out: MIC
Method: (§1) The antimicrobial activity of these compounds was assessed against selected yeast and bacterial strains: Candida albicans ATCC 90028 (CA9), Candida rugosa ATCC 10571 (CR), Candida glabrata ATCC 66032 (CG), Candida parapsilosis ATCC 22019 (CP), Candida tropicalis ATCC 7349 (CT), Candida auris ATCC 21092 (CA), and Cyberlindnera jadinii ATCC 60459. Frozen yeast stocks were plated on Sabouraud agar (SBA) and incubated at 30 °C for 24 h. Three to four colonies from each strain were then suspended in RPMI 1640 (Roswell Park Memorial Institute medium, Sigma- Aldrich, Merck, Darmstadt, Germany) to prepare bacterial dispersions of ~1.5 × 10^6 CFU/mL.
(§2) A broth microdilution assay was used to calculate MIC values. Twofold serially diluted compounds in RPMI 1640 medium (from 256 to 2 μg/mL), were dispensed (100 μL per well) into a 96-well plate. Then, 100 μL of a yeast starter culture was added to each well to reach a final inoculum of 7.5 × 10^5 CFU/mL. Wells containing only nutrient broth without the tested surfactant served as growth controls. Microbial growth was assessed by turbidity, which reflects increases in biomass and cell count. […] To confirm the obtained MICs, 20 μL of 0.015% (w/v) resazurin was dispensed to each well and incubated for 3 h at 30 °C. Metabolic activity was evidenced by a color change from blue to pink, thereby confirming the MIC value.

[5] = test system: Candida tropicalis ATCC 7349; assay: MIC broth microdilution; format: cell-based; settings: C. tropicalis; for MIC: Candida tropicalis, ATCC7349, read-out: MIC
Method: as §1, §2

[6] = test system: Candida glabrata ATCC 66032; assay: MIC broth microdilution; format: cell-based
Method: as §1, §2

[7] = test system: Cyberlindnera jadinii ATCC 60459 (C. jardinii); assay: MIC broth microdilution; format: cell-based; settings: for Selectivity Index (HC50/MIC): C. jardini; for MIC: Williopsis jadinii
Method: as §1, §2

[8] = test system: Candida parapsilosis ATCC 22019; assay: MIC broth microdilution; format: cell-based; settings: C. parapsilosis; for MIC: Lodderomyces parapsilosis, ATCC22019, read-out: MIC
Method: as §1, §2

[9] = test system: Candida auris ATCC 21092; assay: MIC broth microdilution; format: cell-based; settings: C. auris; for MIC: Candidozyma auris, ATCC21092, read-out: MIC
Method: as §1, §2

[10] = test system: Candida rugosa ATCC 10571; assay: MIC broth microdilution; format: cell-based; settings: C. rugosa; for MIC: Diutina rugosa, ATCC10571, read-out: MIC
Method: as §1, §2

[11] = test system: Daphnia magna; assay: Acute toxicity, immobilization test; format: in vivo; settings: Daphnia magna, 48 h
Method: Aquatic toxicity evaluation was performed using Daphnia magna following established protocols. This bioassay method employs laboratory-cultured freshwater microcrustaceans to evaluate surfactant toxicity in aquatic environments. Test organisms were utilized during their initial 24 h life stage to ensure consistency. The endpoint measurement focused on mobility impairment, specifically the loss of swimming capability after gentle stimulation lasting 15 s. Testing conditions included controlled water chemistry parameters: pH maintained at 8.0, calcium-to-magnesium ratio of 4:1, and total hardness of 250 mg/L as CaCO3. All experiments were conducted under dark conditions at 20 °C. The experimental design incorporated ten test concentrations for each surfactant compound, distributed in geometric progression. Each concentration level included 20 Daphnia specimens distributed across four replicate groups of five organisms each. Mobility assessment occurred at 48 h post-exposure, with immobilization percentages plotted against concentration using probability–logarithmic scaling.

[12] = parameters: method as in PMID 36559096; settings: conductivity values; cited from earlier work
[13] = Nakaseomyces glabratus, ATCC66032, 24 h, C. glabrata, RPMI 1640, 24 h, 30 °C, read-out: MIC
[14] = Nakaseomyces glabratus, ATCC66032, C. glabrata, value in parentheses, read-out: MIC
[15] = ATCC60459, C. jardinii, RPMI 1640, 24 h, 30 °C, read-out: MIC
[16] = ATCC60459, C. jardinii, value in parentheses, read-out: MIC

Compound | EC50 [1] [µg/mL] | HC50 ([2]; 10 min, room temperature) [µg/mL] | HC50 ([2]; value in parentheses) [µM] | γc (surface tension at the cmc) [3] [mNm^−1] | cmc [3] [mM] | Selectivity Index (HC50/MIC) ([4]; Table S2) | MIC ([4]; RPMI 1640, 24 h, 30 °C) [µg/mL] | MIC ([4]; value in parentheses) [µM] | Selectivity Index (HC50/MIC) ([5]; Table S2) | MIC ([5]; RPMI 1640, 24 h, 30 °C) [µg/mL] | MIC ([5]; value in parentheses) [µM] | MIC [6, 13] [µg/mL] | MIC [6, 14] [µM] | MIC ([8]; RPMI 1640, 24 h, 30 °C) [µg/mL] | MIC ([8]; value in parentheses) [µM] | MIC ([9]; RPMI 1640, 24 h, 30 °C) [µg/mL] | MIC ([9]; value in parentheses) [µM] | MIC ([10]; RPMI 1640, 24 h, 30 °C) [µg/mL] | MIC ([10]; value in parentheses) [µM] | cmc Cond [12] [mM] | also measured
CCCCCCCCCCCCCCNC(=O)C(CCCNC(=N)N)NC(=O)C(N)Cc1ccccc1 (stereo not drawn) [PANHC14] | 1.8 (≈ 3.48 µM) | 20 ± 0.5 | 34 ± 0.8 | 28.7 ± 1.5 | 0.35 | 1.2 | 16 | 27 | 2.4 | 8 | 14 | 8 | 14 | 8 | 14 | 16 | 27 | 16 | 27 | 0.7 | Selectivity Index (HC50/MIC) ([6]; C. glabrata, Table S2): 2.4; Selectivity Index (HC50/MIC) ([7]; Table S2): 1.2; MIC [7, 15]: 16 µg/mL; MIC [7, 16]: 27 µM; Selectivity Index (HC50/MIC) ([8]; Table S2): 2.4; Selectivity Index (HC50/MIC) ([9]; Table S2): 1.2; Selectivity Index (HC50/MIC) ([10]; Table S2): 1.2; EC50 [11]: 0.71 µg/mL (≈ 1.37 µM)
CCCCCCCCCCCCNC(=O)C(N)Cc1ccccc1 (stereo not drawn) [PNHC12, phenylalanine dodecyl amide hydrochloride] |  | 20 ± 0.6 | 55 ± 1.7 | 26.6 ± 0.8 | 1.2 |  | 8 | 22 |  | 32 | 88 | 32 | 88 | 32 | 88 | 32 | 88 | 32 | 88 | 1.2 | Selectivity Index (HC50/MIC) ([4]; Table S1): 2.5; Selectivity Index (HC50/MIC) ([5]; Table S1): 0.6; Selectivity Index (HC50/MIC) ([6]; C. glabrata, Table S1): 0.6; Selectivity Index (HC50/MIC) ([7]; Table S1): 0.6; MIC ([7]; ATCC60459, 24 h): 32 µg/mL and 88 µM; Selectivity Index (HC50/MIC) ([8]; Table S1): 0.6; Selectivity Index (HC50/MIC) ([9]; Table S1): 0.6; Selectivity Index (HC50/MIC) ([10]; Table S1): 0.6
CCCCCCCCCCNC(=O)C(CCCNC(=N)N)NC(=O)C(N)Cc1c[nH]c2ccccc12 (stereo not drawn) [TANHC10] | 2.2 (≈ 4.4 µM) | 74 ± 2.8 | 129 ± 5 | 30.6 ± 2.0 | 5.4 | 1.15 | 64 | 112 | 1.15 | 64 | 112 | 64 | 112 | 64 | 112 | 128 | 224 | 4 | 7 | 1.7 | Selectivity Index (HC50/MIC) ([6]; C. glabrata, Table S2): 1.15; Selectivity Index (HC50/MIC) ([7]; Table S2): 1.15; MIC [7, 15]: 64 µg/mL; MIC [7, 16]: 112 µM; Selectivity Index (HC50/MIC) ([8]; Table S2): 1.15; Selectivity Index (HC50/MIC) ([9]; Table S2): 0.6; Selectivity Index (HC50/MIC) ([10]; Table S2): 18; EC50 [11]: 9.7 µg/mL (≈ 19.4 µM)
CCCCCCCCCCCC(=O)NC(Cc1ccccc1)C(=O)NC(CCCNC(=N)N)C(=O)OC (stereo not drawn) [C12PAM] (Lauroyl-Phe-Arg-OMe; configuration not given here) |  | 23 ± 0.8 | 42 ± 1.5 | 29.5 ± 2.7 | 0.7 |  | 16 | 29 |  | 16 | 29 | 16 | 29 | 16 | 29 | 32 | 58 | 4 | 7 | 1.2 | Selectivity Index (HC50/MIC) ([4]; Table S1): 1.4; Selectivity Index (HC50/MIC) ([5]; Table S1): 1.4; Selectivity Index (HC50/MIC) ([6]; C. glabrata, Table S1): 1.4; Selectivity Index (HC50/MIC) ([7]; Table S1): 0.4; MIC ([7]; ATCC60459): 116 µM; MIC ([7]; ATCC60459, 24 h): 64 µg/mL; Selectivity Index (HC50/MIC) ([8]; Table S1): 1.4; Selectivity Index (HC50/MIC) ([9]; Table S1): 0.7; Selectivity Index (HC50/MIC) ([10]; Table S1): 6
CCCCCCCCCCCCNC(=O)C(CCCNC(=N)N)NC(=O)C(N)Cc1c[nH]c2ccccc12 (stereo not drawn) [TANHC12] | 1.9 (≈ 3.6 µM) | 16 ± 0.3 | 27 ± 0.6 | 28.7 ± 3.3 | 2.5 | 0.25 | 64 | 108 | 0.5 | 32 | 54 | 128 | 108 | 32 | 54 | 128 | 216 | 4 | 7 | 0.6 | Selectivity Index (HC50/MIC) ([4]; Table S1): 0.25; Selectivity Index (HC50/MIC) ([5]; Table S1): 0.5; MIC ([6]; C. glabrata, RPMI 1640, 24 h, 30 °C): 64 µg/mL; Selectivity Index (HC50/MIC) ([6]; C. glabrata, Table S1): 0.12; Selectivity Index (HC50/MIC) ([6]; C. glabrata, Table S2): 0.25; MIC ([6]; Nakaseomyces glabratus, ATCC66032, 24 h, C. glabrata, value in parentheses, read-out: MIC): 216 µM; Selectivity Index (HC50/MIC) ([7]; Table S1): 0.25; Selectivity Index (HC50/MIC) ([7]; Table S2): 0.25; MIC ([7]; ATCC60459): 108 µM; MIC ([7]; ATCC60459, 24 h): 64 µg/mL; Selectivity Index (HC50/MIC) ([8]; Table S1): 0.5; Selectivity Index (HC50/MIC) ([8]; Table S2): 0.5; Selectivity Index (HC50/MIC) ([9]; Table S1): 0.12; Selectivity Index (HC50/MIC) ([9]; Table S2): 0.1; Selectivity Index (HC50/MIC) ([10]; Table S1): 3.8; Selectivity Index (HC50/MIC) ([10]; Table S2): 4; EC50 [11]: 3 µg/mL (≈ 5.68 µM)
